Reference: patent US10450549B2, “Aryloxyphenoxypropionate tolerance in turfrgass species and use of AAD1 as a selectable marker” (Dow AgroSciences, LLC, priority 2004, dated 2019)
Where two headings read alike, the source gives them in different places.

Assays:
AAD1 (v1) = biological target: T1, AAD1 (v1) (Sphingobium herbicidovorans, UniProt Q8KSC8); assay: Colorimetric phenol detection assay of AAD1 (v1) activity (purified enzyme or E. coli extract); assay type: biochemical; details: for activity of AAD1 (v1) E. coli extract on substrate: 0.5 mM substrate, 4 μl extract; for A510, AAD1 / A510, AAD1 (10x): substrate 1 mM; for A510, AAD1: 1 μg purified AAD1 (v1) per 0.16 ml assay; for A510, AAD1 (10x): 10 μg purified AAD1 (v1) per 0.16 ml assay
T1 construct: made in house; host or cells: E. coli BL-21 Star (DE3), plasmid pDAB3203

PAAD1.315.064 ARBTH = assay: In vitro plate test of herbicide cross resistance: homozygous T4 AAD1 (v3) Arabidopsis; assay type: in vivo, Arabidopsis thaliana; details: for root ratio / shoot ratio: resistant to sensitive biotype, >2 signifies resistance; for PAAD1.315.064 ARBTH root 150 / PAAD1.315.064 T3 ARBTH shoot 150: 7 days
Description: The ability of AAD1 (v3) to provide resistance to other aryloxyphenoxyalkanoate herbicides in transgenic Arabidopsis was determined using a modified in vitro plate assay. Seeds from wild-type Arabidopsis thaliana as well as Arabidopsis thaliana containing the plant optimized AAD1 (v3) gene (T4 homozygous plants id=PAAD1.315.064) were sterilized by agitating for 10 min in a 50% bleach solution. These seeds were then rinsed four times with sterile water to remove the bleach.
Dose response assays utilized a nutrient media (see below) supplemented with various rates of test compounds. The test compounds were added to the heated media (55° C.) as concentrated solutions in DMSO. Control wells had the appropriate amount of DMSO without any additional compound. The final concentration of DMSO never exceeded 1% (v/v). After thorough mixing, a 6 mL aliquot of the warm media containing the appropriate concentration of compound was added to each well of a 6-well, flat bottom, polystyrene tissue culture tray (Falcon 353046, Becton Dickson and Company, Franklin Lakes, N.J.). After the media solidified, approximately 20 to 30 Arabidopsis seeds were applied on top of the solidified media and the remaining 2 mL of media was poured over the seeds. The plates were lightly agitated to disperse the seeds, covered and allowed to cool until the media had completely solidified. The plates were incubated for 7 days at 25° C. under continual fluorescent lighting (75 μE m^−2 s^−1). Nutrient Media Composition was as described in Example 2.2 and in Somerville and Orgen (1982).
Assessment of Growth Reduction. The apical portion of the Arabidopsis plants grown in the treated media was assessed visually relative to the apical portion of the plants grown in the media containing only DMSO. Values were recorded as % growth reduction. Assessments of root growth inhibition of the Arabidopsis plants grown in the treated media were achieved by carefully extracting the plants from the media and measuring the length of the root. These root lengths were then compared to the root length of the control plants to determine a % growth reduction. A minimum of five plants were assessed for each treatment. The values recorded are an average of all the plants assessed. The calculated concentration to reach 50% inhibition effect (I50) were determined for both root and shoots of wildtype and AAD1-transformed Arabidopsis. The ratios of resistant to sensitive biotypes are included in Table 19. A ratio>2 for both root and shoot measurements generally signifies significant resistance. The higher the ratio, the greater the level of resistance. […] The broad phenoxy auxin resistance is the first reported in planta.

[1] = tested on: Arabidopsis thaliana var. Columbia; assay: Arabidopsis plate test bioassay for herbicide degradation; assay type: in vivo; details: for IC50: 168 h; for GR50 ratio: enzyme-expressing lysate vs blank vector, ≥ 2 = threshold for activity loss; for herbicidal activity after AAD1 (v1) treatment, Arabidopsis plate assay: unpurified recombinant AAD1 (v1) extract
[2] = Escherichia coli, in Arabidopsis thaliana, cell lysate of E. coli pET vector without gene insert, read-out: GR50, Chemical + Blank Vector
[3] = Arabidopsis thaliana, read-out: GR50, Chemical + AAD1 v1

T1 sequence (Q8KSC8 whole entry): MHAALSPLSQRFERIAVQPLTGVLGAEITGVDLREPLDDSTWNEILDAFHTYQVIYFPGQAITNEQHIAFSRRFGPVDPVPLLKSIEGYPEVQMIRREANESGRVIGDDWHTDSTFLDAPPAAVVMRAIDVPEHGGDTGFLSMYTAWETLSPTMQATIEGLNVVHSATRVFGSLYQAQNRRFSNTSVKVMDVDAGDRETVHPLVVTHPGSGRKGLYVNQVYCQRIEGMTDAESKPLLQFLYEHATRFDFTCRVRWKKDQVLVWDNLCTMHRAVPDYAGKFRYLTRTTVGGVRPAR

| SMILES | activity of AAD1 (v1) E. coli extract on substrate (AAD1 (v1); 15 min) | A510, AAD1 (AAD1 (v1); Table 3, 15 min) | A510, AAD1 (10x) (AAD1 (v1); Table 3, 15 min) | root ratio (PAAD1.315.064 ARBTH) | shoot ratio (PAAD1.315.064 ARBTH) | PAAD1.315.064 ARBTH root 150 (PAAD1.315.064 ARBTH) | PAAD1.315.064 T3 ARBTH shoot 150 (PAAD1.315.064 ARBTH) | IC50 [1, 2] | GR50 ratio [1] | herbicidal activity after AAD1 (v1) treatment, Arabidopsis plate assay [1] | IC50 [1, 3] | also measured |
| --- | --- | --- | --- | --- | --- | --- | --- | --- | --- | --- | --- | --- |
| CC(Oc1ccc(Cl)cc1Cl)C(=O)O (racemic) [(R,S)-dichlorprop, 2,4-dichlorophenoxypropionic acid] | cleaved | 0.566 | 2.594 | 150 | 2.5 | 1.5 ppm | 5 ppm | 30 nM | 33 | effectively degraded | – | IC50 ([1]; Arabidopsis thaliana, AAD1 (v1)-expressing lysate, nominal concentration, read-out: GR50, Chemical + AAD1 v1): 1000 nM |
| O=C(O)COc1ccc(Cl)cc1Cl [2,4-D, 2,4-dichlorophenoxyacetic acid] | cleaved | 0.034 | 0.383 | – | – | 0.04 ppm | 10 ppm | – | – | almost complete loss | 267 nM | Vmax (A510 units) (AAD1 (v1); AAD1 (v1) (pDAB3203), MOPS pH 6.75): 0.11 A510 units; A510 (AAD1 (v1); Table 8, 1 mM, 27 μg crude recombinant AAD1 (v1) extract from E. coli): 0.177; % 2,4-D (AAD1 (v1); Table 8, relative to 2,4-D, crude AAD1 (v1) extract): 100%; apparent Vmax, AAD1 (v1) (AAD1 (v1); partially purified enzyme): 0.11 A510 units; kcat (AAD1 (v1); purified AAD1 (v1)): 0.045 s⁻¹; Vmax ± SE (AAD1 (v1); purified AAD1 (v1), Michaelis-Menten fit): 0.57 ± 0.00 μmol min^−1 mg^−1 AAD1; IC50 ([1]; Arabidopsis thaliana, read-out: GR50, Chemical alone): 22 nM; IC50 ([1]; Escherichia coli, in Arabidopsis thaliana, read-out: GR50, Chemical + Blank Vector): 17 nM |
| C[C@@H](Oc1ccc(Oc2cnc3cc(Cl)ccc3n2)cc1)C(=O)O [quizalofop] | – | – | – | – | – | – | – | – | – | – | – | activity relative to the dichlorprop rate (AAD1 (v1); purified AAD1 (v1), 1 mM substrate): 76% |
| Nc1c(Cl)c(F)nc(OCC(=O)O)c1Cl [Fluroxypyr] | – | – | – | 1 | 0.5 | 0.2 ppm | 1 ppm | 2250 nM | <1 | – | 1820 nM | resistance afforded by AAD1 (v3) in plate test (PAAD1.315.064 ARBTH; root and shoot assessment): did not effectively protect; IC50 ([1]; Arabidopsis thaliana, root length, 7 days, read-out: GR50, Chemical alone): 2200 nM |
| CC(Oc1ccc(Oc2ncc(C(F)(F)F)cc2Cl)cc1)C(=O)O (centres unmarked) [haloxyfop] | – | – | – | – | – | – | – | – | – | – | – | A510, AAD1 (AAD1 (v1); Table 4): 0.172; A510, AAD1 (10x) (AAD1 (v1); Table 4): 1.63 |
